{
  "source": "paper PMC10046369",
  "about": "“Low-Affinity/High-Selectivity Dopamine Transport Inhibition Sufficient to Rescue Cognitive Functions in the Aging Rat” (Biomolecules, 2023)",
  "key": {"PKNB(M.tuberculosis)": {"biological_target": "PKNB(M.tuberculosis) (Mycobacterium tuberculosis, UniProt P9WI81)", "sequence (P9WI81 whole entry)": "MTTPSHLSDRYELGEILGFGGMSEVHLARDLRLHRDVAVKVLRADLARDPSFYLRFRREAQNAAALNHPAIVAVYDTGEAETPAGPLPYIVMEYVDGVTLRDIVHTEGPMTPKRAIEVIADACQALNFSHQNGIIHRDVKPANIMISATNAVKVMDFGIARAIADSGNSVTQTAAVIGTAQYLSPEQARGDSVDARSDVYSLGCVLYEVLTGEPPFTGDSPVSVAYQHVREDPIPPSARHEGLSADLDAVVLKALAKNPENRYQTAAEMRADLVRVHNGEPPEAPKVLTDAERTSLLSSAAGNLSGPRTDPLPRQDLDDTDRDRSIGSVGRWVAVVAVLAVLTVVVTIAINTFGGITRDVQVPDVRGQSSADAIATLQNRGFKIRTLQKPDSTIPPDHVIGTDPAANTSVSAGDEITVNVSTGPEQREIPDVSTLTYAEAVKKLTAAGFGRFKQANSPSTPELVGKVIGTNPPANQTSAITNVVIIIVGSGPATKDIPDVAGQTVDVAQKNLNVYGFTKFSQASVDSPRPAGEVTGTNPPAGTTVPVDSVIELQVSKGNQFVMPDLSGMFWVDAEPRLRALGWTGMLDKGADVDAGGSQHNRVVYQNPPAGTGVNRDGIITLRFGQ", "assay": "biochemical", "set-up": "KINOMEscan competition binding panel, per cent of control", "details": "read-out: %Ctrl @ 2800nM"}, "PFPK5(P.falciparum)": {"biological_target": "T1, PFPK5(P.falciparum) (Plasmodium falciparum, UniProt P61075)", "T1 construct": "gene CRK2", "T1 sequence (P61075 whole entry)": "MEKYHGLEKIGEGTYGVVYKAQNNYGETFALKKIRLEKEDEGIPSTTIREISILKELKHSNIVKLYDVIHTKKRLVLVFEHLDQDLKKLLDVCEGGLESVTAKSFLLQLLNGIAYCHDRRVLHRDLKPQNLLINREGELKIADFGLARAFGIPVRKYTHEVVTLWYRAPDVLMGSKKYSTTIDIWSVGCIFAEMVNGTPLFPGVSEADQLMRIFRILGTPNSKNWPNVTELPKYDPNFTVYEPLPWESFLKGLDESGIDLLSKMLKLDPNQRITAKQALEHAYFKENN", "assay": "biochemical", "set-up": "KINOMEscan competition binding panel, per cent of control", "details": "read-out: %Ctrl @ 2800nM"}, "[1]": {"biological_target": "T2, human dopamine transporter (hDAT) (Homo sapiens, UniProt Q01959)", "T2 construct": "gene SLC6A3", "T2 sequence (Q01959 whole entry)": "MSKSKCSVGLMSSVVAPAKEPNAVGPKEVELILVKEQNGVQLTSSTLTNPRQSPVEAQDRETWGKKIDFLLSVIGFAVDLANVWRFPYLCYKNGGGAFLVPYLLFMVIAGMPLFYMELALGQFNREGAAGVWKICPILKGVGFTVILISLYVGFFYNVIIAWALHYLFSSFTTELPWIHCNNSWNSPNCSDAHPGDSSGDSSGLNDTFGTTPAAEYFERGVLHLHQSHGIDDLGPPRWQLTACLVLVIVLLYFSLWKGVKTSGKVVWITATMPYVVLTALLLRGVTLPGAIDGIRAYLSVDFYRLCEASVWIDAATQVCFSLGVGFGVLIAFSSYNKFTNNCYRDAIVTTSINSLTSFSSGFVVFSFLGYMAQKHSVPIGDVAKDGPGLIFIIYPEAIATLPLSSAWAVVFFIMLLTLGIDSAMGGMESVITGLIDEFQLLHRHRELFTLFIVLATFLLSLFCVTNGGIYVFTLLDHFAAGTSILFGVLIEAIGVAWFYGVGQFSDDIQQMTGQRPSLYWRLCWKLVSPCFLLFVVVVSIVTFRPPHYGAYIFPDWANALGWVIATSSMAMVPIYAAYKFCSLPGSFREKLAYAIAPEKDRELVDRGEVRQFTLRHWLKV", "assay": "radioligand competition binding ([3H]BTCP), hDAT expressed in CHO cells", "format": "cell-based"}, "XCR1 / GPR5": {"biological_target": "XCR1 / GPR5 (Homo sapiens, UniProt P46094)", "sequence (P46094 whole entry)": "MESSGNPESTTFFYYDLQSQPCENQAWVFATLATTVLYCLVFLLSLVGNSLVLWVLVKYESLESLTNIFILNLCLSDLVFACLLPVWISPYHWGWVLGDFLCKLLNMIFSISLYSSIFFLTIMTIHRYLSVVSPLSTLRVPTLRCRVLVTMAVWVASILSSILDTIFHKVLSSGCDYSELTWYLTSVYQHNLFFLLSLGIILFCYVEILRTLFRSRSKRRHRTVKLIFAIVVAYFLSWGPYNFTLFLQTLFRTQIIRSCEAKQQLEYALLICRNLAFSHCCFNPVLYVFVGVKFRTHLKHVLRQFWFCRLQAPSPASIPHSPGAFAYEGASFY", "assay": "cell-based", "set-up": "Eurofins Cerep functional GPCR screen, antagonist mode, inhibition of control agonist response", "details": "read-out: % Inhibition of Control Agonist Response, Mean"}},
  "data": [
    {"smiles": "[O-][S@@+](Cc1cncs1)C(c1ccccc1)c1ccccc1", "note": "[S-CE-123, (S)-5-((Benzhydrylsulfinyl)Methyl)Thiazole]", "values": [
      {"measurement": "remaining binding at 2.8 µM", "setting": "PKNB(M.tuberculosis)", "result": 96, "unit": "%"},
      {"measurement": "remaining binding at 2.8 µM", "setting": "PFPK5(P.falciparum)", "result": 84, "unit": "%"},
      {"measurement": "Ki", "setting": "[1]", "result": 0.61, "unit": "µM"},
      {"measurement": "inhibition at 2.8 µM", "setting": "XCR1 / GPR5", "result": -9.2, "unit": "%"}
    ]}
  ]
}
